Data as given in patent US11931362B2 (CIPLA LIMITED, priority 2019, dated 2024).

Tested on: Escherichia coli, Staphylococcus aureus, Pseudomonas aeruginosa, Candida albicans, and Aspergillus niger
Test: Preservative efficacy test, overall outcome
Type: cell-based
Conditions: bacteria and fungi
Method: Preservative effectiveness tests are compendial-guided assays that determine efficacy for preservative systems in pharmaceutical preparations. In such assays, test formulations are challenged with standardized suspensions of indicator aerobic bacteria and molds and microorganism survival is monitored over a 28-day period. The efficacy of the preservative against various microorganisms was measured using a USP/EP preservative efficacy test. These tests were conducted on Memmert equipment. In the procedure, formulations were tested against the following microorganisms: Escherichia coli, Staphylococcus aureus, Pseudomonas aeruginosa, Candida albicans, and Aspergillus niger. The bacterial strains and fungi were inoculated at a total concentration of […]. Samples were incubated for 7 days at room temperature (25° C.), and the total bacterial and fungal counts were measured using a colony counter. The log reduction (LR) values for the bacterial and fungal counts were calculated as log (initial count/final count).

Question: `OCc1ccccc1` [benzyl alcohol] was tested. Which “preservative efficacy test outcome” value did it give?
Answer: effective
